In patent US20170196987A1, “METHODS FOR TREATING MULTIPLE SCLEROSIS” (MedWell Laboratories Ltd., priority 2014, published 2017):

Tests used:
[1] = tested on: Experimental Autoimmune Encephalomyelitis (EAE) mice; test: Efficacy of oral and ip MWL-001, MP and their combination in EAE (model of brain inflammation, MS), Example 2; assay type: in vivo, female C57Bl mice; settings: for Inhibition of the clinical signs of the disease: day 0 to day 15
Description: Induction of EAE: Disease was induced in female C57Bl mice (6-8 weeks old; Harlan). Myelin Oligodendrocyte Glycoprotein (MOG 35-55) (Hadassah ein karem) was dissolved in saline (3 mg/ml) and emulsified (1:1) with Complete Freund's Adjuvant (CFA) (gibco; containing 5 mg of killed MT). 200 microliter of emulsion (containing […] of MOG) was injected into the right flank, and each mouse received a supplement of 250 ng of pertussis toxin (List) i.p. Another 250 ng of pertussis toxin (PT) were injected 24 hours later. Mice were observed daily from the 9th day post-EAE and the clinical signs were scored as described in Table III below.
MWL-001 was dissolved in ethanol (60 mg/ml), wherein in one group MWL-001 was administered ip and in a second group MWL-001 was administered orally by gavage at a dose of 50 mg/kg (10% stock in saline). The MWL-001 was administered once a day (from day 0) at 9 am. Treatment ended on day 15 post inoculation. Each dose was administered in a volume of 0.2 ml/mouse
A third group of animals was treated ip with a dose of 25 mg/kg starting on day 7 and ending on day 15
The number of animals in each of the above five groups was between 9 and 11.
Calculation of the incidence of disease: The number of sick animals in each group was summed and percentage of sick animals in each group calculated.
Calculation of the mean maximal score (MMS): The maximal scores of each of the 10 mice in the group were summed and the mean maximal score of each group was calculated as follows:Σ maximal score of each mouse / number of mice in the group.
Calculation of the group mean score (GMS): The scores of each of the 10 mice in the group was summed and the mean score per day calculated. The group mean score was calculated as follows: Σ total score of each mouse per day/number of mice in the group.

[2] = tested on: spinal cord of EAE animal; test: Histopathology of H&E stained spinal cord sections of EAE animals; assay type: in vivo, mice
From the text: FIG. 5 (A, B and C) is a histopathological photograph of a spinal cord section stained with H&E of control untreated EAE animal. P=parenchymal infiltrates, M=meningeal infiltrates and D=diffused infiltrates.
FIG. 6 (A and B) is a histopathological photograph of a spinal cord section stained with H&E of EAE animal treated with MWL-001 (i.p.) on day 0.
FIG. 7 (A and B) is a histopathological photograph of a spinal cord section stained with H&E of EAE animal treated with MWL-001 (i.p.) on day 10.
Histopathological photographs are presented as FIGS. 5, 6 and 7).

[3] = tested on: Experimental Autoimmune Encephalomyelitis (EAE) mice; test: Efficacy of conjugate MW001 in MOG 35-55 induced EAE (model of multiple sclerosis), Example 1; assay type: in vivo, female C57B1 mice
Description: Disease was induced in female C57B1 mice (6-8 weeks old; Harlan). Myelin Oligodendrocyte Glycoprotein (MOG) 35-55 was dissolved in saline (3 mg/ml) and emulsified (1:1) with Complete Freund's Adjuvant (CFA) (gibco; containing 5 mg of killed mycobacterium tuberculosis (MT). 200 μl of the emulsion (containing […] of MOG) were injected into the right flank of each mouse, wherein and each mouse received a 250 ng supplement of pertussis toxin (PT, List) by intraperitoneal injection. Another 250 ng of PT were injected into the right flank of each mouse 24 hours later. The mice were observed daily from the 9th day post-EAE and the clinical signs were scored as described in Table 1 below:
The MW-001 conjugate was dissolved in ethanol (60 mg/ml) and administered by intraperitoneal injection, at a dose of 50 mg/kg (10% stock in saline) twice a day, once at 9 am and once at […]. Each dose was administered in a volume of 0.2ml/mouse (˜20 g). One group of animals was treated starting at day 0 (relating to the first day on which the induction of the disease started) and the other starting at day 10, when clinical signs first appeared. […]
Calculation of the incidence of disease: The number of sick animals in each group was summed and percentage of sick animals in each group was calculated.
Calculation of the mean maximal score (MMS): The maximal scores of each of the 10 mice in the group was summed and the mean maximal score of each group was calculated as follows:Σmaximal score of each mouse/number of mice in the group.
Calculation of the group mean score (GMS):The scores of each of the 10 mice in the group was summed and the mean score per day calculated. The group mean score was calculated as follows: Σtotal score of each mouse per day/number of mice in the group.
Mean maximal score (MMS): defined as the disease severity; scored on a scale of 0-5 with graduations of 0.5 for intermediate clinical signs. The score is described in table-1

[4] = MWL-001 i.p. treatment started at day 10, FIG. 7 A and B
[5] = MW-001 50 mg/kg ip twice a day, treatment started on day 0, monitored day 0 to day 20
[6] = MW-001 50 mg/kg ip twice a day, treatment started on day 10, monitored day 0 to day 20

## CC/C=C/C/C=C/C/C=C/C/C=C/C/C=C/C/C=C/CCC(=O)N1CC(O)CC1C(=O)O (stereo not shown) [MW-001]
[1]; 25 mg/kg ip, day 7 to day 15, 5 in the control group, FIG. 3
  Severity of disease (clinical score): 3
[1]; 25 mg/kg ip, day 7 to day 15, FIG. 3
  Inhibition of appearance of clinical signs: did not inhibit their appearance on day 10-11 post inoculation
[1]; 50 mg/kg once a day ip, FIG. 2
  Inhibition of the clinical signs of the disease: effective in inhibiting the clinical signs of the disease
[1]; 50 mg/kg once a day orally by gavage, FIG. 2
  Inhibition of the clinical signs of the disease: effective in inhibiting the clinical signs of the disease
[1]; 50 mg/kg once a day orally or ip, a few days after treatment ended on day 15, FIG. 2
  Clinical signs after cessation of the drug: mild signs of the disease appeared for a short period of time
[2]; MWL-001 i.p. on Day 0, compared to untreated, FIG. 6 A and B
  Mononuclear cell infiltrates in the spinal cord (meningeal): very few meningeal infiltrates
[2]; [4]
  Mononuclear cell infiltrates in the spinal cord (meningeal): very few meningeal infiltrates
  Parenchymal or diffused infiltrates in the spinal cord: no parenchymal or diffused infiltrates
[3]; 50 mg/kg ip twice a day, started on day 0 or day 10
  Effectiveness in preventing and ameliorating EAE (overall, vs untreated group): highly effective in preventing and ameliorating EAE in mice
[3]; [5]
  Disease incidence (sick mice/total): **1/10
  Mean day of onset: 15
  Mean disease duration: 0.6 ± 0.19 days
  Mean maximal score: 0.075 ± 0.02
  Mean score (whole group): 0.2 ± 0.06
[3]; [6]
  Incidence (#dead, including sacrificed): 11/11
  Mean day of onset: 11 ± 0.09
  Mean disease duration: 8.90 ± 0.2 days
  Mean maximal score: 2.72 ± 0.14
  Mean score (whole group): 1.34 ± 0.08
